Data taken from patent publication US8008291B2 (Mimetica Pty Ltd, priority 2008, dated 2011).

Target: T1, human MC5R (hMC5R) (Homo sapiens, UniProt P33032)
T1 construct: purchased Perkin Elmer RBXMC5M400UA
Assay: Human MC5R radioligand binding assay (membranes, [125I] NDP-MSH displacement)
Conditions: hMC5R binding; tested as trifluoroacetate or hydrochloride salts, or free bases; read-out: MC5R radioligand IC50
In short: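 Frozen human MC5R membranes incubated with test compound and in-house iodogen-labeled, HPLC-purified [125I]NDP-MSH for 1 hr at 37° C. Binding measured as displacement of the radioligand.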

T1 sequence (P33032 whole entry): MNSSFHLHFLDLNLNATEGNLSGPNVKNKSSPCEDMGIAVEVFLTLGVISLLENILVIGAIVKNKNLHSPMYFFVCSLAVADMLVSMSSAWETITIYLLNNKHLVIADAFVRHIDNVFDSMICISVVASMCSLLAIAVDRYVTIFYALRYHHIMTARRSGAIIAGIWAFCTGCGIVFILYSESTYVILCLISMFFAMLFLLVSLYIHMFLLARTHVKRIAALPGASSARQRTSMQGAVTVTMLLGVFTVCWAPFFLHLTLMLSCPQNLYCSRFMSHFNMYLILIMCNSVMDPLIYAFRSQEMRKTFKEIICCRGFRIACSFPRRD

Structure (SMILES)	IC50 [nM]
CCCOC(=O)N[C@H](Cc1ccc2ccccc2c1)[C@@H]1CCN(CC(c2ccccc2)c2ccccc2)C(=O)[C@H](CCCNC(=N)N)N1 [Compound 87, propyl (R)-1-((3S,5S)-1-(2,2-diphenylethyl)-3-(3-guanidinopropyl)-2-oxo-1,4-diazepan-5-yl)-2-(naphthalen-2-yl)ethylcarbamate]	< 10000
O=C(NC[C@@H]1CCN(CC(c2ccccc2)c2ccccc2)C(=O)[C@H](CCN2CCCCC2)N1)c1ccc2cc(Cl)ccc2c1 [Compound 378, 6-chloro-N-(((3S,5S)-1-(2,2-diphenylethyl)-2-oxo-3-(2-(piperidin-1-yl)ethyl)-1,4-diazepan-5-yl)methyl)-2-naphthamide]	< 10
N=C(N)NCCC[C@@H]1N[C@H](CNC(=O)C2CC2c2ccccc2)CCN(CC(c2ccccc2)c2ccccc2)C1=O (stereo partly drawn) [Compound 174, N-(((3S,5S)-1-(2,2-diphenylethyl)-3-(3-guanidinopropyl)-2-oxo-1,4-diazepan-5-yl)methyl)-2-phenylcyclopropanecarboxamide]	< 1000
NCC[C@@H]1N[C@H](CNC(=O)/C=C/c2ccc(F)cc2F)CCN(CC(c2ccccc2)c2ccccc2)C1=O [Compound 401, (E)-N-(((3S,5S)-3-(2-aminoethyl)-1-(2,2-diphenylethyl)-2-oxo-1,4-diazepan-5-yl)methyl)-3-(2,4-difluorophenyl)acrylamide]	< 1000
CC[C@H](CN1CC[C@@H](CNC(=O)c2csc(-c3ccccc3)n2)N[C@@H](CCN2CCCCC2)C1=O)c1ccccc1 [Compound 496, N-(((3S,5S)-2-oxo-1-((S)-2-phenylbutyl)-3-(2-(piperidin-1-yl)ethyl)-1,4-diazepan-5-yl)methyl)-2-phenylthiazole-4-carboxamide]	< 100
CCC(CN1CC[C@@H](CNC(=O)c2ccc(Cl)c(Cl)c2)N[C@@H](CCN2CCCCC2)C1=O)C1CC1 (stereo partly drawn) [Compound 486, 3,4-dichloro-N-(((3S,5S)-1-(2-cyclopropylbutyl)-2-oxo-3-(2-(piperidin-1-yl)ethyl)-1,4-diazepan-5-yl)methyl)benzamide]	< 1000
NCCC[C@@H]1N[C@H](CNC(=O)c2ccc3ccccc3c2)CCN(Cc2cc(C(F)(F)F)cc(C(F)(F)F)c2)C1=O [Compound 340, N-(((3S,5S)-3-(3-aminopropyl)-1-(3,5-bis(trifluoromethyl)benzyl)-2-oxo-1,4-diazepan-5-yl)methyl)-2-naphthamide]	< 10000
O=C(C=Cc1ccccc1)NC[C@@H]1CCN(CC(c2ccccc2)c2ccccc2)C(=O)[C@H](CCCN2CCCCC2)N1 [Compound 266, N-(((3S,5S)-1-(2,2-diphenylethyl)-2-oxo-3-(3-(piperidin-1-yl)propyl)-1,4-diazepan-5-yl)methyl)cinnamamide]	< 100
O=C(NC[C@@H]1CCN(Cc2ccc(Cl)cc2Cl)C(=O)[C@H](CCN2CCCCC2)N1)c1ccc(Cl)c(Cl)c1 [Compound 503, 3,4-dichloro-N-(((3S,5S)-1-(2,4-dichlorobenzyl)-2-oxo-3-(2-(piperidin-1-yl)ethyl)-1,4-diazepan-5-yl)methyl)benzamide]	< 1000
CC[C@@H](CN1CC[C@@H](CNC(=O)c2ccc3cc(Cl)ccc3c2)N[C@@H](CCN)C1=O)C(C)C [Compound 469, N-(((3S,5S)-3-(2-aminoethyl)-1-((R)-2-ethyl-3-methylbutyl)-2-oxo-1,4-diazepan-5-yl)methyl)-6-chloro-2-naphthamide]	< 1000
O=C(C=Cc1ccccc1)NC[C@@H]1CCN(CC(c2ccccc2)c2ccccc2)C(=O)[C@H](CCN2CCCCC2)N1 [Compound 283, N-(((3S,5S)-1-(2,2-diphenylethyl)-2-oxo-3-(2-(piperidin-1-yl)ethyl)-1,4-diazepan-5-yl)methyl)cinnamamide]	< 100
CC[C@H](CN1CC[C@@H](CNC(=O)c2ccc(Cl)c(Cl)c2)N[C@@H](CCNc2ccccc2)C1=O)c1ccccc1 [Compound 428, 3,4-dichloro-N-(((3S,5S)-2-oxo-3-(2-(phenylamino)ethyl)-1-((S)-2-phenylbutyl)-1,4-diazepan-5-yl)methyl)benzamide]	< 1000
